Results taken from ChEMBL document CHEMBL1255421, “In vitro fungicidal activities of echinocandins against Candida metapsilosis, C. orthopsilosis, and C. parapsilosis evaluated by time-kill studies” (2010).
Values after ≈ are worked out from the molar mass of the structure shown. Active and inactive are the calls of the source. The rule behind the calls is not given here. Numbered stars: 1 amine (or outer) side, 2 acyl side, 3 side chain; on linkers, the order of the positions; unused ones are H or OH. Bridge positions count the residues as written; N and C are the ends. Square brackets hold non-standard residues; d marks the D form. Peptide text beside a SMILES is read from it. * marks the point of attachment. hTyr(3S-OH,4S-OH,3'-OSO3H) = N[C@H](C(=O)O)[C@H](O)[C@@H](O)c1ccc(O)c(OS(=O)(=O)O)c1; Orn(4R-OH,5R-OH) = O=C([C@H](C[C@@H](O)[C@@H](O)N[*:3])N[*:1])[*:2]; Pro(3S-OH,4S-Me) = C[C@H]1CN[C@H](C(=O)O)[C@H]1O; X1 = CCCCCOc1ccc(-c2cc(-c3ccc(C(=O)*)cc3)no2)cc1; Gln(3R-OH) = NC(=O)C[C@@H](O)[C@H](N)C(=O)O; Hyp = O=C(O)[C@@H]1C[C@@H](O)CN1

Tests used:
Candida orthopsilosis [1] = test: Antifungal activity against Candida orthopsilosis clinical isolate bloodstream form assessed as time required for 90% reduction in fungal growth at 16 mg/L by time-kill assay; type: functional
Candida orthopsilosis [2] = test: Antifungal activity against Candida orthopsilosis clinical isolate bloodstream form assessed as time required for 90% reduction in fungal growth at 4 mg/L by time-kill assay; type: functional
Candida parapsilosis [3] = test: Fungicidal activity against Candida parapsilosis ATCC 22019 bloodstream form by CLSI method; type: functional; conditions: Lodderomyces parapsilosis
Candida parapsilosis [4] = test: Antifungal activity against Candida parapsilosis clinical isolate bloodstream form assessed as time required for 50% reduction in fungal growth at 0.25 mg/L by time-kill assay; type: functional
Candida metapsilosis [5] = test: Antifungal activity against Candida metapsilosis clinical isolate bloodstream form assessed as time required for 50% reduction in fungal growth at 32 mg/L by time-kill assay; type: functional
Candida metapsilosis [6] = test: Antifungal activity against Candida metapsilosis clinical isolate bloodstream form assessed as time required for 99.9% reduction in fungal growth at 16 mg/L by time-kill assay; type: functional
Candida orthopsilosis [7] = test: Antifungal activity against Candida orthopsilosis clinical isolate bloodstream form assessed as mild induction of fungal death at 0.03 to 32 mg/L after 6 hrs by time-kill assay; type: functional, organism-based
Candida parapsilosis [8] = test: Antifungal activity against Candida parapsilosis clinical isolate bloodstream form assessed as time required for 90% reduction in fungal growth at 0.25 mg/L by time-kill assay; type: functional
Candida parapsilosis [9] = test: Antifungal activity against Candida parapsilosis clinical isolate bloodstream form assessed as inhibition of fungal regrowth at 0.03 to 32 mg/L after 6 hrs by time-kill assay; type: functional, organism-based
Candida metapsilosis [10] = test: Antifungal activity against Candida metapsilosis clinical isolate bloodstream form assessed as time required for 99% reduction in fungal growth at 1 mg/L by time-kill assay; type: functional
Candida metapsilosis [11] = test: Fungicidal activity against Candida metapsilosis isolate ATC193 bloodstream form by CLSI method; type: functional; conditions: Lodderomyces metapsilosis, isolate ATC-193
Candida metapsilosis [12] = test: Antifungal activity against Candida metapsilosis clinical isolate bloodstream form assessed as time required for 99.9% reduction in fungal growth at 4 mg/L by time-kill assay; type: functional
Candida parapsilosis [13] = test: Antifungal activity against Candida parapsilosis clinical isolate bloodstream form assessed as time required for 99% reduction in fungal growth at 0.25 mg/L by time-kill assay; type: functional
Candida parapsilosis [14] = test: Antifungal activity against Candida parapsilosis clinical isolate bloodstream form assessed as time required for 99.9% reduction in fungal growth at 4 mg/L by time-kill assay; type: functional
Candida orthopsilosis [15] = test: Antifungal activity against Candida orthopsilosis clinical isolate bloodstream form assessed as time required for 90% reduction in fungal growth at 1 mg/L by time-kill assay; type: functional
Candida orthopsilosis [16] = test: Fungicidal activity against Candida orthopsilosis isolate CP-151 bloodstream form by CLSI method; type: functional; conditions: Lodderomyces orthopsilosis
Candida orthopsilosis [17] = test: Fungicidal activity against Candida orthopsilosis isolate ATC194 bloodstream form by CLSI method; type: functional; conditions: Lodderomyces orthopsilosis, isolate ATC-194
Candida orthopsilosis [18] = test: Antifungal activity against Candida orthopsilosis clinical isolate bloodstream form assessed as time required for 99% reduction in fungal growth at 4 mg/L by time-kill assay; type: functional
Candida parapsilosis [19] = test: Antifungal activity against Candida parapsilosis clinical isolate bloodstream form assessed as time required for 99% reduction in fungal growth at 1 mg/L by time-kill assay; type: functional
Candida orthopsilosis [20] = test: Antifungal activity against Candida orthopsilosis clinical isolate bloodstream form assessed as time required for 50% reduction in fungal growth at 0.25 mg/L by time-kill assay; type: functional
Candida metapsilosis [21] = test: Antifungal activity against Candida metapsilosis clinical isolate bloodstream form assessed as time required for 99.9% reduction in fungal growth at 0.25 mg/L by time-kill assay; type: functional
Candida parapsilosis [22] = test: Fungicidal activity against Candida parapsilosis isolate CP-302 bloodstream form by CLSI method; type: functional; conditions: Lodderomyces parapsilosis
Candida metapsilosis [23] = test: Antifungal activity against Candida metapsilosis clinical isolate bloodstream form assessed as time required for 99% reduction in fungal growth at 0.25 mg/L by time-kill assay; type: functional
Candida orthopsilosis [24] = test: Antifungal activity against Candida orthopsilosis clinical isolate bloodstream form assessed as time required for 99% reduction in fungal growth at 32 mg/L by time-kill assay; type: functional
Candida parapsilosis [25] = test: Antifungal activity against Candida parapsilosis clinical isolate bloodstream form assessed as time required for 99% reduction in fungal growth at 4 mg/L by time-kill assay; type: functional
Candida parapsilosis [26] = test: Antifungal activity against Candida parapsilosis clinical isolate bloodstream form assessed as time required for 50% reduction in fungal growth at 4 mg/L by time-kill assay; type: functional
Candida metapsilosis [27] = test: Antifungal activity against Candida metapsilosis clinical isolate bloodstream form assessed as time required for 50% reduction in fungal growth at 0.25 mg/L by time-kill assay; type: functional
Candida metapsilosis [28] = test: Antifungal activity against Candida metapsilosis clinical isolate bloodstream form assessed as time required for 90% reduction in fungal growth at 16 mg/L by time-kill assay; type: functional
Candida parapsilosis [29] = test: Antifungal activity against Candida parapsilosis clinical isolate bloodstream form assessed as induction of fungal killing rate at 0.03 to 32 mg/L measured at 6 hrs by time-kill assay; type: functional, organism-based
Candida parapsilosis [30] = test: Antifungal activity against Candida parapsilosis clinical isolate bloodstream form assessed as time required for 50% reduction in fungal growth at 32 mg/L by time-kill assay; type: functional
Candida metapsilosis [31] = test: Antifungal activity against Candida metapsilosis clinical isolate bloodstream form assessed as time required for 50% reduction in fungal growth at 4 mg/L by time-kill assay; type: functional
Candida orthopsilosis [32] = test: Antifungal activity against Candida orthopsilosis clinical isolate bloodstream form assessed as time required for 50% reduction in fungal growth at 4 mg/L by time-kill assay; type: functional
Candida orthopsilosis [33] = test: Antifungal activity against Candida orthopsilosis clinical isolate bloodstream form assessed as time required for 99% reduction in fungal growth at 16 mg/L by time-kill assay; type: functional
Candida parapsilosis [34] = test: Antifungal activity against Candida parapsilosis clinical isolate bloodstream form assessed as time required for 50% reduction in fungal growth at 1 mg/L by time-kill assay; type: functional
Candida metapsilosis [35] = test: Antifungal activity against Candida metapsilosis clinical isolate bloodstream form assessed as time required for 50% reduction in fungal growth at 1 mg/L by time-kill assay; type: functional
Candida orthopsilosis [36] = test: Antifungal activity against Candida orthopsilosis clinical isolate bloodstream form assessed as time required for 90% reduction in fungal growth at 32 mg/L by time-kill assay; type: functional
Candida metapsilosis [37] = test: Antifungal activity against Candida metapsilosis clinical isolate bloodstream form assessed as time required for 99% reduction in fungal growth at 4 mg/L by time-kill assay; type: functional
Candida metapsilosis [38] = test: Fungicidal activity against Candida metapsilosis isolate CP-133 bloodstream form by CLSI method; type: functional; conditions: Lodderomyces metapsilosis
Candida orthopsilosis [39] = test: Fungicidal activity against Candida orthopsilosis isolate CP-131 bloodstream form by CLSI method; type: functional; conditions: Lodderomyces orthopsilosis
Candida orthopsilosis [40] = test: Antifungal activity against Candida orthopsilosis clinical isolate bloodstream form assessed as time required for 50% reduction in fungal growth at 1 mg/L by time-kill assay; type: functional
Candida metapsilosis [41] = test: Antifungal activity against Candida metapsilosis clinical isolate bloodstream form assessed as time required for 99.9% reduction in fungal growth at 32 mg/L by time-kill assay; type: functional
Candida orthopsilosis [42] = test: Antifungal activity against Candida orthopsilosis clinical isolate bloodstream form assessed as time required for 99.9% reduction in fungal growth at 16 mg/L by time-kill assay; type: functional
Candida parapsilosis [43] = test: Antifungal activity against Candida parapsilosis clinical isolate bloodstream form assessed as time required for 90% reduction in fungal growth at 4 mg/L by time-kill assay; type: functional

## CCCCCOc1ccc(-c2cc(-c3ccc(C(=O)N[C@H]4C[C@@H](O)[C@@H](O)NC(=O)[C@@H]5[C@@H](O)[C@@H](C)CN5C(=O)[C@H]([C@H](O)CC(N)=O)NC(=O)[C@H]([C@H](O)[C@@H](O)c5ccc(O)c(OS(=O)(=O)O)c5)NC(=O)[C@@H]5C[C@@H](O)CN5C(=O)[C@H]([C@@H](C)O)NC4=O)cc3)no2)cc1 [MICAFUNGIN] (X1-[Orn(4R-OH,5R-OH)]T[Hyp][hTyr(3S-OH,4S-OH,3'-OSO3H)][Gln(3R-OH)][Pro(3S-OH,4S-Me)]; lactam 1-C)
Candida orthopsilosis [1]
  Time: 4.59 h
Candida orthopsilosis [2]
  Time: 5.53 h
Candida parapsilosis [3]
  MIC: 0.5 µg/mL (≈ 0.394 µM)
Candida parapsilosis [4]
  Time: inactive
Candida metapsilosis [5]
  Time: 1.43 h
Candida metapsilosis [6]
  Time: 14.41 h
Candida orthopsilosis [7]
  Activity: Active
Candida parapsilosis [8]
  Time: inactive
Candida parapsilosis [9]
  inhibition: inactive
Candida metapsilosis [10]
  Time: 20.3 h
Candida metapsilosis [11]
  MIC: 0.25 µg/mL (≈ 0.197 µM)
Candida metapsilosis [12]
  Time: 17.68 h
Candida parapsilosis [13]
  Time: inactive
Candida parapsilosis [14]
  Time: >48 h
Candida orthopsilosis [15]
  Time: 10.13 h
Candida orthopsilosis [16]
  MIC: 0.25 µg/mL (≈ 0.197 µM)
Candida orthopsilosis [17]
  MIC: 0.5 µg/mL (≈ 0.394 µM)
Candida orthopsilosis [18]
  Time: 11.06 h
Candida parapsilosis [19]
  Time: inactive
Candida orthopsilosis [20]
  Time: 15.93 h
Candida metapsilosis [21]
  Time: >48 h
Candida parapsilosis [22]
  MIC: 1 µg/mL (≈ 0.787 µM)
Candida metapsilosis [23]
  Time: >48 h
Candida orthopsilosis [24]
  Time: 10.22 h
Candida parapsilosis [25]
  Time: >48 h
Candida parapsilosis [26]
  Time: 17.6 h
Candida metapsilosis [27]
  Time: >48 h
Candida metapsilosis [28]
  Time: 4.8 h
Candida parapsilosis [29]
  Activity: inactive
Candida parapsilosis [30]
  Time: 6.16 h
Candida metapsilosis [31]
  Time: 1.77 h
Candida orthopsilosis [32]
  Time: 1.66 h
Candida orthopsilosis [33]
  Time: 9.17 h
Candida parapsilosis [34]
  Time: inactive
Candida metapsilosis [35]
  Time: 3.06 h
Candida orthopsilosis [36]
  Time: 5.11 h
Candida metapsilosis [37]
  Time: 11.79 h
Candida metapsilosis [38]
  MIC: 0.12 µg/mL (≈ 0.0945 µM)
Candida orthopsilosis [39]
  MIC: 0.25 µg/mL (≈ 0.197 µM)
Candida orthopsilosis [40]
  Time: 3.05 h
Candida metapsilosis [41]
  Time: 14.29 h
Candida orthopsilosis [42]
  Time: 13.76 h
Candida parapsilosis [43]
  Time: >48 h
